Measurements published in patent publication US5463077A, “Perhydroisoindole derivatives and preparation” (Rhone-Poulenc Rorer S.A., priority 1992, dated 1995).

Key:
Format in all cases: in vivo
[1] = test system: hypotension induced by substance P; assay: Antagonism of hypotension induced by substance P (Maggi et al.); conditions: Cavia porcellus, iv; guinea-pig; hypotension induced by i.v. injection of 250 ng/kg of substance P; read-out: ED50, dose which reduces by 50% the hypotension
Protocol: Injection of substance P into the animal causes hypotension. The products studied by the technique of C. A. Maggi et al., J. Auton. Pharmac., 7, 11-32 (1987) show an antagonistic effect with respect to this hypotension in the guinea-pig. The ED50, the dose which reduces by 50% the hypotension induced by an i.v. injection of 250 ng/kg of substance P, is determined.

[2] = test system: increase in capillary permeability caused by septide (agonist of substance P); assay: Inhibition of the increase in capillary permeability caused by septide (Saria et al., adapted for the guinea-pig); conditions: Cavia porcellus
Description: Study of certain isoindole derivatives of the general formula (IV) by the technique of A. Saria et al., Arch.

[3] = test system: bronchospasm induced by [Pro^9 ] substance P; assay: Inhibition of bronchospasm induced by [Pro9] substance P (Konzett and Rossler); conditions: Cavia porcellus, iv; guinea-pig; bronchospasm induced by 3 μg/kg i.v. of [Pro9] substance P; read-out: ED50, dose which reduces by 50% the bronchospasm
Description: Injection of substance P causes a bronchospasm in the animal. The bronchoconstriction induced in vivo in the guinea-pig by injection of substance P or of a selective agonist of substance P: [Pro^9 ] substance P is studied by the technique of H. Konzett and R. Rosseler, Archiv. Exp. Path. Pharmak., 195, 71-74 (1940). This bronchoconstriction is inhibited by injection of a product of the general formula (IV), which is evidence of an antiasthmatic activity. The ED50, the dose which reduces by 50 % the bronospasm induced by 3 μg/kg i.v. of [Pro^9 ] substance P, is determined. In this technique, the ED50 of the product of Use Example 1 is 0.7 mg/kg i.v.

With `COc1ccccc1[C@H](C)C(=O)N1C[C@@H]2[C@H](C1)C(c1ccccc1)(c1ccccc1)CC[C@@]2(O)c1ccccc1OC` [Use Example 1, (3aS,4S,7aS)-7,7-diphenyl-4-(2-methoxyphenyl)-2-[2-(2-methoxyphenyl)-(S)-propionyl]-perhydroisoindol-4-ol] the ED50 [1] was 0.15 mg/kg, the ED50 ([2]; iv) was 0.04 mg/kg and the ED50 ([2]; po) was 3.5 mg/kg. For the same molecule, the ED50 [3] was 0.7 mg/kg.
